# Data as given in patent publication US9127044B2, “Cyclic depsipeptides” (NOVARTIS AG, priority 2007, dated 2015).
# Where “and” joins values, the source holds several entries; their conditions need not be identical. Equal entries are not always repeated.
# Tests used:
# [1] = biological target: T1, Human neutrophil elastase (Homo sapiens, UniProt P08246); assay: HNE inhibitory activity in vitro (fluorescence-quenched substrate); type: biochemical
# T1 construct: purchased Elastin Products Company, Inc. (EPC, Owensville, USA) SE563
# T1 sequence (P08246 30-267): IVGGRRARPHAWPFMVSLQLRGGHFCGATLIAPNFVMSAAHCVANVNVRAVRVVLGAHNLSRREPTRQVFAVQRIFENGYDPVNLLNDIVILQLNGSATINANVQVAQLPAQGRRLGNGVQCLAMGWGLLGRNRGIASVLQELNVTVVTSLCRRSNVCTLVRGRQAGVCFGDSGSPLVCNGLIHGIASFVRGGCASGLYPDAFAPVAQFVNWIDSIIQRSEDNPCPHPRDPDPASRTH
# [2] = system: hairless SKH1 mice; assay: Test on recovery of skin barrier disruption in mice (TEWL); type: in vivo; settings: 10 mM
# Procedure: The procedure was completed when transepidermal water loss (TEWL) achieved ≧40 mg/cm^2/h. TEWL was assessed with a Tewameter TM210 (Courage Khazaka, Cologne, Del.). Immediately after barrier disruption 30 μl the test compound was applied at 10 mM concentration. Control animals were treated similarly with the solvent (ethanol/propylene glycol, 3/7 (v/v)) alone. TEWL was measured before, immediately after, and at 3 hrs after barrier disruption. In each animal, the percentage recovery was calculated using the formula: (1−[TEWL at 3 hrs−base line TEWL]/[TEWL immediately after stripping−base line TEWL])×100%.
# [3] = system: Crl:NMRI mice; assay: Anti-inflammatory activity in murine model of allergic contact dermatitis (ACD), oxazolone; type: in vivo; settings: for Δ Auricular weights Mean (SD): 10 μl topical 30 min after challenge, n: 8 animals per group; for % Inhibition of inflammatory swelling Mean ± SE: single topical application, p<0.001 vs solvent-treated animals
# Procedure: Method: Crl:NMRI mice were sensitized on the shaved abdomen with 50 μl of 2% oxazolone on day 1 and challenged with 10 μl oxazolone on the inner surface of the right ear on day 8. The unchallenged left ears served as normal controls and dermatitis was evaluated from the difference in auricular weight (taken as a measure of inflammatory swelling) on day 9. The animals were treated topically with 10 μl test compound or the solvent only 30 min after the challenge. The efficacy of the treatment was calculated as the percentage inhibition of inflammatory auricular swelling relative to animals treated with the vehicle alone.
compound,measurement,setting,value
CCC(C)[C@@H]1NC(=O)[C@H](Cc2ccc(O)cc2)N(C)C(=O)[C@H](C(C)CC)N2C(=O)C(CC[C@@H]2O)NC(=O)[C@H](CC(C)C)NC(=O)[C@@H](NC(=O)[C@H](CCC(N)=O)NC(=O)C(C)C)[C@@H](C)OC1=O (stereo partly shown) [formula II],IC50,[1],10 nM
same,% Recovery in barrier disruption Mean (SD values),"[2]; 30 μl topical, TEWL at 3 hrs, n: 4 animals per group",72.0 (9.1) %
same,acceleration of barrier repair compared to repair in mice treated with the solvent alone,"[2]; single topical application, 3 hrs after barrier disruption, p<0.05",57%
same,Δ Auricular weights Mean (SD),[3]; 10 mM,17.0 (4.8)
same,% Inhibition of inflammatory swelling Mean ± SE,[3]; 10 mM,40% and 40 ± 6.9%
same,Δ Auricular weights Mean (SD),[3]; 30 mM,15.3 (5.4)
same,% Inhibition of inflammatory swelling Mean ± SE,[3]; 30 mM,46% and 46 ± 7.5%
